# Test results reported in patent US20110217300A1, “Quinazolinone Compounds and Methods of Use Thereof” (priority 2007, published 2011).
# Experiments:
# NCI-H460 = assay: MTS cell viability assay; format: cell-based, human; settings: Homo sapiens, NCI-H460, 72 h, read-out: MTS NCI H460 GI50, NCI-H460 non small cell lung, 72 hours
# Method: Cell viability was determined by measuring the activity of dehydrogenase enzymes in metabolically active cells using a tetrazolium compound, MTS. The assay was performed as described in Promega Technical Bulletin No. 169 (CellTiter 96 Aqueous Non-Radioactive Cell Proliferation Assay). Two human cancer cell lines were assayed (see, Table 1). Cells were maintained at 37° C. and 5% CO2 in DMEM media (4.5 g/L glucose) supplemented with 10% heat-inactivated FBS, 10 mM L-glutamine, and 10 mM Hepes pH 7.5. Briefly, cells were seeded in 96-well plates as set forth in Table 1 and incubated for 16-24 hours. Candidate compounds were serially diluted in DMSO, further diluted in cell culture media, and then added to cells (final DMSO concentration of 0.33%). Cells were incubated in the presence of candidate compound for 72 hours. MTS stock solution (MTS 2 gm/L, PMS […] in PBS) was added to the cells (final concentration MTS […] and PMS 7.67 mg/L) and incubated for 4 hours. SDS was added to a final concentration of 1.4% and absorbance at 490 nm was measured within two hours using a plate reader. […] GI50 values were given in Table 2 for the compounds listed. The Compound Numbers in Table 2 correspond to the numbers listed parenthetically in the Example titles. Where multiple measurements were made by different technicians, both values are given.
# Cell viability was determined for N-(3-amino-propyl)-3-chloro-N—[(R)-1-(7-chloro-4-oxo-3-phenylamino-3,4-dihydro-quinazolin-2-yl)-but-3-ynyl]-2-fluoro-benzamide (compound I of Table 2). The cell viability assay of Example 105 was used. GI50 was determined using a variety of cell lines. Cells were plated at 100-5000 cells per well. At least 2 replicates were performed. Where multiple measurements were made by different technicians, both values are given.
# A549 = assay: MTS cell viability assay; format: cell-based; settings: Homo sapiens, A549, 72 h, A549 non small cell lung, 72 hours; read-out: MTS NCI A549 GI50
# Method: Two human cancer cell lines were assayed (see, Table 1). Cells were maintained at 37° C. and 5% CO2 in DMEM media (4.5 g/L glucose) supplemented with 10% heat-inactivated FBS, 10 mM L-glutamine, and 10 mM Hepes pH 7.5. Briefly, cells were seeded in 96-well plates as set forth in Table 1 and incubated for 16-24 hours. Candidate compounds were serially diluted in DMSO, further diluted in cell culture media, and then added to cells (final DMSO concentration of 0.33%). Cells were incubated in the presence of candidate compound for 72 hours. […] The Compound Numbers in Table 2 correspond to the numbers listed parenthetically in the Example titles.
smiles,measurement,setting,value
"CC[C@H](c1nc2cc(Cl)ccc2c(=O)n1Nc1ccccc1)N(CCCN)Cc1ccccc1 [Compound 70, 2-{(1R)-1-[(3-aminopropyl)(benzyl)amino]propyl}-3-anilino-7-chloro-3H-quinazolin-4-one]",GI50,NCI-H460,4.23 µM
same,GI50,A549,6.91 µM
"C#CC[C@H](c1nc2cc(Cl)ccc2c(=O)n1Nc1ccccc1)N(CCCN)S(=O)(=O)c1ccc(C)cc1 [Compound 30, N-(3-amino-propyl)-N—[(R)-1-(7-chloro-4-oxo-3-phenylamino-3,4-dihydro-quinazolin-2-yl)-but-3-ynyl]-4-methyl-benzenesulfonamide]",GI50,NCI-H460,12 µM
same,GI50,A549,7.1 µM
"C#CC[C@H](c1nc2cc(Cl)ccc2c(=O)n1Nc1ccccc1)N(CCCN)Cc1ccc(C)cc1 [Compound 66, 2-{(R)-1-[(3-Amino-propyl)-(4-methyl-benzyl)-amino]-but-3-ynyl}-7-chloro-3-phenylamino-3H-quinazolin-4-one]",GI50,NCI-H460,3.2 µM
same,GI50,A549,2.35 µM
"CC[C@H](c1nc2cc(Cl)ccc2c(=O)n1Nc1ccccc1)N(CCCN)Cc1ccc(F)c(C)c1 [Compound 69, 2-{(1R)-1-[(3-Aminopropyl)(4-fluoro-3-methylbenzyl)amino]propyl}-3-anilino-7-chloro-3H-quinazolin-4-one]",GI50,NCI-H460,3.77 µM
same,GI50,A549,3.9 µM
"CC[C@H](c1nc2cc(Cl)ccc2c(=O)n1Nc1ccccc1)N(CCCN)Cc1ccc(C)cc1 [Compound 68, 2-{(R)-1-[(3-Amino-propyl)-(4-methyl-benzyl)-amino]-propyl}-7-chloro-3-phenylamino-3H-quinazolin-4-one]",GI50,NCI-H460,2.59 µM
same,GI50,A549,3.86 µM
